Measured values from EP1311531B1, “STEROID DERIVED ANTIBIOTICS” (Brigham Young University, priority 2000, dated 2002).
Converted amounts (≈) assume the structure as drawn. Like-named read-outs stand apart in the source and are kept apart here.

Legend:
E. coli (ATCC 10798) [1] = assay: MIC and MBC measurement; type: cell-based, Escherichia coli; details: ATCC10798; for MIC: read-out: MIC; for MBC: read-out: MBC
Method: (§1) General: Microorganisms. Reference strains were purchased from the American Type Culture Collection (Rockville, MD) or Bactrol disks from Difeo Laboratories (Detroit, MI). […] Bacterial strains were maintained on Mueller-Hinton agar plates, and Candida albicans was maintained on Sabouraud Dextrose agar plates.
(§2) Aliquots (20 mL) of the homogeneous solution were then poured in sterile plastic petri dishes (100 x 15 mm, Fisher Scientific). Solutions of compounds were made by dissolving the HCl salt of the respective compound into an appropriate amount of deionized and sterilized water followed by microfiltration.
(§3) Aliquots of 1 mL of the suspension were added to test tubes containing 1 mL TSB and incrementally varied concentrations of cholic acid derivatives and/or erythromycin or novobiocin. […] Additionally, an alliquot from each of the samples showing no measurable turbidity was subcultured on TSA plates (alliquots were diluted to provide fewer than 300 CFU). Colonies that grew on the subculture after overnight incubation were counted and the number of CFU/mL in the samples were calculated. The calculated values were compared to the number of CFU/mL in the original inoculum.

[2] = test system: Pseudomonas aeruginosa ATCC 27853; assay: MIC and MBC measurement; type: cell-based
Method: as §1, §2, §3

[3] = test system: Escherichia coli ATCC 25922; assay: MIC and MBC measurement; type: cell-based; details: Escherichia coli, ATCC25922, antibiotic alone; E. coli (ATCC 25922); read-out: MIC
Excerpt: General: Microorganisms. Reference strains were purchased from the American Type Culture Collection (Rockville, MD) or Bactrol disks from Difeo Laboratories (Detroit, MI). The following specific ATCC strains were used: 10798 Escherichia coli, 25922 Escherichia coli, 13883 Klebsiella pneumoniae, 27853 Pseudomonas aeruginosa, 14028 Salmonella typhimurium, 29212 Enterococcus faecalis, 25923 Staphylococcus aureus, 19615 Streptococcus pyogenes, and 90028 Candida albicans. Bacterial strains were maintained on Mueller-Hinton agar plates, and Candida albicans was maintained on Sabouraud Dextrose agar plates.
Tryptic soy broth (TSB) was made by dissolving 27.5 grams of tryptic soy broth without dextrose (DIFCO Laboratories) in 1 liter of deionized water and sterilizing at 121 °C for 15 minutes. Solid agar (TSA) plates were made by dissolving 6.4 grams of tryptic soy broth and 12 grams of agar (purified grade, Fischer Scientific) in 800 mL of deionized water and sterilizing at 121 °C for 20 minutes. Aliquots (20 mL) of the homogeneous solution were then poured in sterile plastic petri dishes (100 x 15 mm, Fisher Scientific). Solutions of compounds were made by dissolving the HCl salt of the respective compound into an appropriate amount of deionized and sterilized water followed by microfiltration.
Aliquots of 1 mL of the suspension were added to test tubes containing 1 mL TSB and incrementally varied concentrations of cholic acid derivatives and/or erythromycin or novobiocin. In the sensitization experiments, erythromycin or novobiocin were added 15 minutes later than the cholic acid derivatives. The samples were subjected to stationary incubation at 37°C for 24 hours. Sample turbidity was determined by measuring absorption at 760 nm (HP 8453 UV-Visible Chemstation, Hewlett Packard). Additionally, an alliquot from each of the samples showing no measurable turbidity was subcultured on TSA plates (alliquots were diluted to provide fewer than 300 CFU). Colonies that grew on the subculture after overnight incubation were counted and the number of CFU/mL in the samples were calculated. The calculated values were compared to the number of CFU/mL in the original inoculum. […]

E. coli (ATCC 10798) [4] = assay: Sensitization to erythromycin or novobiocin (outer membrane permeabilization, FIC); type: cell-based, Escherichia coli; details: for (a) Concentration required to lower the MIC of erythromycin from 70 to 1 µg/mL / (b) MBC with 1 µg/mL erythromycin / (d) Concentration required to lower the MIC of novobiocin from >500 to 1 µg/mL / FIC^c (FIC values with erythromycin) / FIC^c (FIC values with novobiocin): Table 9, Escherichia coli (ATCC 10798)
Method: (§4) FICs can be performed by checkerboard titrations of compounds in one dimension of a microtiter plate, and of antibiotics in the other dimension, for example. The FIC is calculated by looking at the impact of one antibiotic on the MIC of the other and vice versa. […] Preferably, an FIC of less than 0.5 is obtained for synergism. As used herein, FIC can be determined as follows: FIC = (MIC(compound in combination))/(MIC(compound alone)) + (MIC(antibiotic in combination))/(MIC(antibiotic alone)) [formula]
(§5) Aliquots of 1 mL of the suspension were added to test tubes containing 1 mL TSB and incrementally varied concentrations of cholic acid derivatives and/or erythromycin or novobiocin. In the sensitization experiments, erythromycin or novobiocin were added 15 minutes later than the cholic acid derivatives. The samples were subjected to stationary incubation at 37°C for 24 hours. Sample turbidity was determined by measuring absorption at 760 nm (HP 8453 UV-Visible Chemstation, Hewlett Packard). Additionally, an alliquot from each of the samples showing no measurable turbidity was subcultured on TSA plates (alliquots were diluted to provide fewer than 300 CFU). Colonies that grew on the subculture after overnight incubation were counted and the number of CFU/mL in the samples were calculated. The calculated values were compared to the number of CFU/mL in the original inoculum.
They were also tested for the ability to permeabilize the outer membrane of Gram-negative bacteria, causing sensitization to hydrophobic antibiotics that cannot cross the outer membrane. The permeabilization of the outer membrane was measured using erythromycin and novobiocin.

[5] = test system: Pseudomonas aeruginosa ATCC 27853; assay: Sensitization to erythromycin, novobiocin or rifampicin (permeabilization, FIC); type: cell-based; details: Table 7; P. aureginosa (ATCC 27853); with erythromycin
Method: as §4, §5
Concentrations of 0.5, 1.0 or 3.0 µg/mL of these antibiotics were used, and the concentrations of the cholic acid derivatives required to inhibit bacterial growth of Gram-negative strains were determined.

[6] = Escherichia coli, antibiotic alone, E. coli (ATCC 10798)
[7] = ATCC27853, antibiotic alone, P. aureginosa (ATCC 27853)
[8] = Table 9, Escherichia coli (ATCC 10798)

| Compound | MIC (E. coli (ATCC 10798) [1]; [6]) | MIC [2, 7] | MBC (E. coli (ATCC 10798) [1]; [8]) | MIC (E. coli (ATCC 10798) [1]; [8]) | (a) Concentration required to lower the MIC of erythromycin from 70 to 1 µg/mL (E. coli (ATCC 10798) [4]) | (b) MBC with 1 µg/mL erythromycin (E. coli (ATCC 10798) [4]) | (d) Concentration required to lower the MIC of novobiocin from >500 to 1 µg/mL (E. coli (ATCC 10798) [4]) | FIC^c (FIC values with erythromycin) (E. coli (ATCC 10798) [4]) | FIC^c (FIC values with novobiocin) (E. coli (ATCC 10798) [4]) | other results |
| --- | --- | --- | --- | --- | --- | --- | --- | --- | --- | --- |
| CC[C@H]1OC(=O)[C@H](C)[C@@H](O[C@H]2C[C@@](C)(OC)[C@@H](O)[C@H](C)O2)[C@H](C)[C@@H](O[C@@H]2O[C@H](C)C[C@H](N(C)C)[C@H]2O)[C@](C)(O)C[C@@H](C)C(=O)[C@H](C)[C@@H](O)[C@]1(C)O [erythromycin, reference compound] | 70 µg/mL (≈ 95.4 µM) | 240 µg/mL (≈ 327 µM) |  |  |  |  |  |  |  | MIC [3]: 30 µg/mL (≈ 40.9 µM) |
| C[C@H](CCCOS(=O)(=O)O)[C@H]1CC[C@H]2[C@@H]3[C@H](OCCCN)C[C@@H]4C[C@H](OCCCN)CC[C@]4(C)[C@H]3C[C@H](OCCCN)[C@]12C [Compound 132] |  |  |  |  |  |  |  |  |  | MIC (E. coli (ATCC 10798) [1]; Escherichia coli, E. coli (ATCC 10798)): 60 µg/mL (≈ 92.9 µM); concentration required to lower the MIC of erythromycin to 1 µg/mL (E. coli (ATCC 10798) [4]; E. coli (ATCC 10798)): 4.0 µg/mL |
| C[C@H](CCO)[C@H]1CC[C@H]2[C@@H]3[C@H](OCCCN)C[C@@H]4C[C@H](OCCCN)CC[C@]4(C)[C@H]3C[C@H](OCCCN)[C@]12C [Compound 109] |  |  | 120 µg/mL (≈ 217 µM) | 70 µg/mL (≈ 127 µM) | 4.0 µg/mL | 80 µg/mL | 15 µg/mL | 0.071 | 0.22 |  |
| COCCC[C@@H](C)[C@H]1CC[C@H]2[C@@H]3[C@H](OCCCN)C[C@@H]4C[C@H](OCCCN)CC[C@]4(C)[C@H]3C[C@H](OCCCN)[C@]12C [Compound 111] |  |  | 33 µg/mL (≈ 56.9 µM) | 30 µg/mL (≈ 51.7 µM) | 1.0 µg/mL | 20 µg/mL | 2.0 µg/mL | 0.048 | 0.069 |  |
| CO[C@@H]1[C@@H](OC(N)=O)[C@@H](O)[C@H](Oc2ccc3c(O)c(NC(=O)c4ccc(O)c(CC=C(C)C)c4)c(=O)oc3c2C)OC1(C)C [novobiocin, reference compound] | > 500 µg/mL | > 500 µg/mL |  |  |  |  |  |  |  |  |
| C[C@H](CCCN(C)Cc1ccccc1)[C@H]1CC[C@H]2[C@@H]3[C@H](OCCCCN)C[C@@H]4C[C@H](OCCCCN)CC[C@]4(C)[C@H]3C[C@H](OCCCCN)[C@]12C [Compound 3] |  |  |  |  |  |  |  |  |  | MIC (E. coli (ATCC 10798) [1]; Escherichia coli, Table 1, E. coli (ATCC 10798)): 6 µg/mL (≈ 8.44 µM); MIC ([2]; ATCC27853, Table 6, P. aureginosa (ATCC 27853)): 16 µg/mL (≈ 22.5 µM); concentration required to lower the MIC of erythromycin from 240 µg/mL to 5 µg/mL [5]: 6 µg/mL; concentration required to lower the MIC of erythromycin from 70 µg/mL to 1 µg/mL (E. coli (ATCC 10798) [4]; Table 2, E. coli (ATCC 10798), with erythromycin): 1.5 µg/mL |
